This is an account of results in ChEMBL document CHEMBL1158447, “Substituted benzimidazoles: A novel chemotype for small molecule hKSP inhibitors” (Bioorg Med Chem Lett, 2009).

The target in assay [1] is T1, Kinesin-like protein KIF11 (Homo sapiens, UniProt P52732).
T1 sequence (P52732 whole entry): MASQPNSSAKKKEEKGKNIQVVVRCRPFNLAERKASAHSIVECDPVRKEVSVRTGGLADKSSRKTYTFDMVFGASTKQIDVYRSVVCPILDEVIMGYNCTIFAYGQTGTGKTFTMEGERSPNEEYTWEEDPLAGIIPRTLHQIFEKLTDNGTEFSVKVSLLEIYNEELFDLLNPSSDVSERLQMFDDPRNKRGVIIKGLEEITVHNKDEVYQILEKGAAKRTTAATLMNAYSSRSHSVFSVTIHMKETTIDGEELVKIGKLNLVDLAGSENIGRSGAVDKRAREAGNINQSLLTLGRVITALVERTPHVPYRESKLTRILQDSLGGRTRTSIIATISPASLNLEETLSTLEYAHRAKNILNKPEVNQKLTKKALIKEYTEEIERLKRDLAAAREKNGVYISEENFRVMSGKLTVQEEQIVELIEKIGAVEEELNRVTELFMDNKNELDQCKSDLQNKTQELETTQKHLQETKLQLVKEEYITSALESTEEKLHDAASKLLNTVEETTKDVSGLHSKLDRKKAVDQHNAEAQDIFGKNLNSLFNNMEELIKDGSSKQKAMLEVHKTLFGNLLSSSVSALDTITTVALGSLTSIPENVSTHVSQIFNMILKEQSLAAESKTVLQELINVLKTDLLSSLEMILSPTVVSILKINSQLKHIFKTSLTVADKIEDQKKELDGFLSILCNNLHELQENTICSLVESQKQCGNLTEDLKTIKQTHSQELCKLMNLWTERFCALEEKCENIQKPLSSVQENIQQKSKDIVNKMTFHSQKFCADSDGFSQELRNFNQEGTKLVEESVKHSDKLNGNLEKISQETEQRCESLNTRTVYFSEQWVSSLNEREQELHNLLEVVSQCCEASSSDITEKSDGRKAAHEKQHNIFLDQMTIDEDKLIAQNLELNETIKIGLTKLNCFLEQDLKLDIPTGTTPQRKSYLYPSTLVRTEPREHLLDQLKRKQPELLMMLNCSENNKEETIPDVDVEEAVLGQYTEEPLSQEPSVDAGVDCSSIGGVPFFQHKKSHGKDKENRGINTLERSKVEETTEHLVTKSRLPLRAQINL
Description: Inhibition of human kinesin spindle protein by endpoint assay.

The target in assay [2] is T2, Kinesin heavy chain isoform 5A (Homo sapiens, UniProt Q12840).
T2 sequence (Q12840 whole entry): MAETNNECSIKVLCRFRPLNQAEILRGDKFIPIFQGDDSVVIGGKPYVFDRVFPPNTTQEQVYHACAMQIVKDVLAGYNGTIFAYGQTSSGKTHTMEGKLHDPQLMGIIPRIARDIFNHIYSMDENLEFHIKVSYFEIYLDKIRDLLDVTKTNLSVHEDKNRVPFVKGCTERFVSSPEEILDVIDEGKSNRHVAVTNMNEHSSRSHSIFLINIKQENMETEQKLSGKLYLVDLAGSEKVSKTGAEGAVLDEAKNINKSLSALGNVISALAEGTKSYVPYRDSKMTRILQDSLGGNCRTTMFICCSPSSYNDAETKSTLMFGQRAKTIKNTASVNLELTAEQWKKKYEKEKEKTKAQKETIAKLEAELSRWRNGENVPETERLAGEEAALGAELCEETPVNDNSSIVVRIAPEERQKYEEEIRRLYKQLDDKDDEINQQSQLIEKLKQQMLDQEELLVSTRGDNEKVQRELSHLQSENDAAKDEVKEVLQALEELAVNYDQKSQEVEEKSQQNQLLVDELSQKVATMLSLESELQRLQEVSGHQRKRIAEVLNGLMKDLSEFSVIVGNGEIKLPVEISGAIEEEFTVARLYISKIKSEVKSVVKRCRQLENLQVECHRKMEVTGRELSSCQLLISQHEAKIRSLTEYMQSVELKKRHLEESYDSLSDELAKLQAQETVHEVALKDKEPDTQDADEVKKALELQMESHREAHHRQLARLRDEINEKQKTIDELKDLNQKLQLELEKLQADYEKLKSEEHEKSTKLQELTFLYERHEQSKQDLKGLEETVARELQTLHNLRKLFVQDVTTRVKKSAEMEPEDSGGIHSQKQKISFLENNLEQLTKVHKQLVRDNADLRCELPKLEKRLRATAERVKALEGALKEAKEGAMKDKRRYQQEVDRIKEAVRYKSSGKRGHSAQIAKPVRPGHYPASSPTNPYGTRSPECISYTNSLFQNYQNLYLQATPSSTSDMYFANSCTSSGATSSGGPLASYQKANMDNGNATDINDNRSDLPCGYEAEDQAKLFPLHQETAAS
The experiment in a line: Inhibition of nKHC.

Assay [3] deals with T3, Kinesin-like protein KIF3B (Homo sapiens, UniProt O15066).
T3 sequence (O15066 whole entry): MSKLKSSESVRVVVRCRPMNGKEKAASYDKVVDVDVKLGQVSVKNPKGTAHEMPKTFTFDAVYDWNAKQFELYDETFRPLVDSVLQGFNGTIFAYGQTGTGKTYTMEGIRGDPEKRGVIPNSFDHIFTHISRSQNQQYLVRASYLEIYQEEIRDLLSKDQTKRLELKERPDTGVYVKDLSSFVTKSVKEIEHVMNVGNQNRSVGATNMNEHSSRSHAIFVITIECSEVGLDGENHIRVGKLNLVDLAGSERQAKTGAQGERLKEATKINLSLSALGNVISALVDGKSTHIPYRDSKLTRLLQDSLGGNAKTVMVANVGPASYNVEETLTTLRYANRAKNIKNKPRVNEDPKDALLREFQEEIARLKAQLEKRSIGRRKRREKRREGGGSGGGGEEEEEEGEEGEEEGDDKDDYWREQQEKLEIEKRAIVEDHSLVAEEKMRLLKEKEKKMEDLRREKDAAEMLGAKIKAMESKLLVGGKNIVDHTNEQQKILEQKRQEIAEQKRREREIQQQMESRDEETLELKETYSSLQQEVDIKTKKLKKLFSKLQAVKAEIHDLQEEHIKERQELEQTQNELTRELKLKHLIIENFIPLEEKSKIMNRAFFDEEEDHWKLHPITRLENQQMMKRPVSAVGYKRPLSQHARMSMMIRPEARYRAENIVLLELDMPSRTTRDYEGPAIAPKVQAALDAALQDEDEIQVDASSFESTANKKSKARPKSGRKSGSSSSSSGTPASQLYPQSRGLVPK
The experiment in a line: Inhibition of Kif3B.

`NC(=O)c1ccc2nc(Nc3ccc(S(N)(=O)=O)cc3)n(Cc3ccccc3C(F)(F)F)c2c1` showed an IC50 in assay [1] above 20 µM.
Consider `NC(=O)c1cc2c(cc1F)nc(Nc1ccc(S(N)(=O)=O)cc1)n2Cc1ccccc1C(F)(F)F`, for which, in assay [1], the IC50 is above 20 µM.
As to `NC(=O)c1ccc2c(c1)nc(Nc1ccc(S(N)(=O)=O)cc1)n2Cc1csc2ccc(Cl)cc12`, the IC50 in assay [2] is above 50 µM; in assay [1] it was 19 µM; in assay [3], above 50 µM.
As for `COc1ccc(Cc2nc3cc(C(=O)O)ccc3n2Cc2ccccc2C(F)(F)F)cc1`, the IC50 in assay [1] was above 20 µM.
As for `Cc1ccc(CNc2nc3cc(C(=O)O)ccc3n2Cc2ccccc2C(F)(F)F)cc1`, the half-inhibitory concentration (IC50) in assay [2] was above 50 µM; in assay [1], above 20 µM; in assay [3], above 50 µM.
`COc1cccc(Cn2c(Nc3ccc(S(N)(=O)=O)cc3)nc3cc(C(N)=O)ccc32)c1OC`: the IC50 is above 50 µM in assay [2], 5 µM in assay [1] and above 50 µM in assay [3].
`COc1ccc(CNc2nc3cc(C(=O)O)ccc3n2Cc2ccccc2C(F)(F)F)cc1`: the IC50 in assay [2] is above 50 µM; in assay [1], above 20 µM; in assay [3], above 50 µM.
Turning to `COc1ccc(Nc2nc3cc(C(=O)Nc4ccccc4OC)ccc3n2Cc2ccccc2C(F)(F)F)cc1`, the IC50 in assay [2] was above 50 µM; in assay [1] it was 6 µM; in assay [3], above 50 µM.
As for `CNC(=O)c1ccc2c(c1)nc(Nc1ccc(OC)cc1)n2Cc1ccccc1C(F)(F)F`, the results for the IC50 in assay [2], in assay [1] and in assay [3] were above 50 µM, 5.2 µM and above 50 µM, respectively.
For the compound `NC(=O)c1ccc2c(c1)nc(Nc1ccc(S(N)(=O)=O)cc1)n2Cc1ccccn1`, the IC50 in assay [2] is above 50 µM; in assay [1] it was above 20 µM; in assay [3] it was above 50 µM.
As for `COC(=O)c1ccc2c(c1)nc(Nc1ccc(OC)cc1)n2Cc1ccccc1C(F)(F)F`, the figures for the IC50 in assay [2], in assay [1] and in assay [3] were above 50 µM, 13.4 µM and above 50 µM, respectively.
As to `NC(=O)c1cc2nc(Nc3ccc(S(N)(=O)=O)cc3)n(Cc3ccccc3C(F)(F)F)c2cc1F`, in assay [1], it took 7.9 µM to reach half-maximal inhibition (IC50).
On to `CSc1ccc(Cc2nc3cc(C(=O)O)ccc3n2Cc2ccccc2C(F)(F)F)cc1`, for which the IC50 in assay [1] is above 20 µM.
Regarding `CC(c1ccccc1C(F)(F)F)n1c(Nc2ccc(S(N)(=O)=O)cc2)nc2cc(C(N)=O)ccc21` (stereo not drawn), the IC50 was above 50 µM in assay [2], above 20 µM in assay [1] and above 50 µM in assay [3].
For `CNC(=O)c1ccc2c(c1)nc(Nc1ccc(S(N)(=O)=O)cc1)n2Cc1ccccc1C(F)(F)F`, the IC50 in assay [2] is above 50 µM; in assay [1], 9.2 µM; in assay [3], above 50 µM.
Regarding `COc1ccc(Nc2nc3cc(C(=O)O)ccc3n2Cc2ccccc2C(F)(F)F)cc1`, the IC50 in assay [2] was above 50 µM; in assay [1] it was above 20 µM; in assay [3], above 50 µM.
As to `NS(=O)(=O)c1ccc(CNc2nc3cc(C(=O)O)ccc3n2Cc2ccccc2C(F)(F)F)cc1`, the IC50 in assay [2] is above 50 µM; in assay [1], above 20 µM; in assay [3], above 50 µM.
Consider `NS(=O)(=O)c1ccc(Nc2nc3cc(C(=O)O)ccc3n2Cc2ccccc2C(F)(F)F)cc1`, for which the figures for the IC50 in assay [2], in assay [1] and in assay [3] were above 50 µM, above 20 µM and above 50 µM, respectively.
Regarding `NC(=O)c1ccc2c(c1)nc(Nc1ccc(S(N)(=O)=O)cc1)n2C1(c2ccccc2)CC1`, the IC50 in assay [2] was above 50 µM; in assay [1], above 20 µM; in assay [3] it was above 50 µM.
Turning to `CSc1ccc(Nc2nc3cc(C(=O)O)ccc3n2Cc2ccccc2C(F)(F)F)cc1`, the IC50 in assay [2] was above 50 µM; in assay [1], 1.4 µM; in assay [3] it was above 50 µM.
In the case of `NS(=O)(=O)c1ccc(Nc2nc3cc(C(=O)N4CCCC4)ccc3n2Cc2ccccc2C(F)(F)F)cc1`, the IC50 in assay [2] is above 50 µM; in assay [1] it was above 20 µM; in assay [3] it was above 50 µM.
For the compound `COC(=O)c1ccc2c(c1)nc(Nc1ccc(SC)cc1)n2Cc1ccccc1C(F)(F)F`, the values for the IC50 in assay [2], in assay [1] and in assay [3] were above 50 µM, 33.4 µM and above 50 µM, respectively.
For `COc1ccccc1Cn1c(Nc2ccc(S(N)(=O)=O)cc2)nc2cc(C(N)=O)ccc21`, the IC50 in assay [2] is above 50 µM; in assay [1], 20 µM; in assay [3], above 50 µM.
Regarding `O=C(O)c1ccc2c(c1)nc(NCCN1CCOCC1)n2Cc1ccccc1C(F)(F)F`, the IC50 was above 50 µM in assay [2], above 20 µM in assay [1] and above 50 µM in assay [3].
For the compound `CS(=O)(=O)c1ccc(CNc2nc3cc(C(=O)O)ccc3n2Cc2ccccc2C(F)(F)F)cc1`, the results for the IC50 in assay [2], in assay [1] and in assay [3] were above 50 µM, above 20 µM and above 50 µM, respectively.
As to `NC1CCN(c2nc3cc(C(=O)O)ccc3n2Cc2ccccc2C(F)(F)F)C1` (stereo not drawn), the IC50 in assay [2] was above 50 µM; in assay [1], above 20 µM; in assay [3] it was above 50 µM.
As for `COc1ccc(Nc2nc3cc(C(=O)O)ccc3n2Cc2ccccc2C(F)(F)F)cc1F`, the IC50 is above 50 µM in assay [2], 2.3 µM in assay [1] and above 50 µM in assay [3].
In the case of `COC(=O)c1ccc2c(c1)nc(Nc1ccc(S(N)(=O)=O)cc1)n2Cc1ccccc1C(F)(F)F`, the IC50 in assay [2] was above 50 µM; in assay [1] it was 2.2 µM; in assay [3], above 50 µM.
Consider `COc1ccccc1NC(=O)c1ccc2c(c1)nc(Nc1ccc(S(N)(=O)=O)cc1)n2Cc1ccccc1C(F)(F)F`, for which the IC50 in assay [2] is above 50 µM; in assay [1], 2.4 µM; in assay [3], above 50 µM.
`CN(C)C(=O)c1ccc2c(c1)nc(Nc1ccc(S(N)(=O)=O)cc1)n2Cc1ccccc1C(F)(F)F`: the figures for the IC50 in assay [2], in assay [1] and in assay [3] were above 50 µM, 16.3 µM and above 50 µM, respectively.
In the case of `NC(=O)c1ccc2c(c1)nc(Nc1ccc(S(N)(=O)=O)cc1)n2Cc1nc2ccccc2s1`, the values for the half-maximal inhibitory concentration (IC50) in assay [2], in assay [1] and in assay [3] were above 50 µM, above 20 µM and above 50 µM, respectively.
